Assay results as given in patent publication US4973675A, “Hybrid nitrosoureidoanthracyclines having antitumor activity” (University of Tennessee Research Center, priority 1989, dated 1990).
pIC50: −log10 of the molar value. Entries after “also recorded” stand apart in the source; their conditions may differ. Read-outs that look alike come from different tables or passages of the source.

Legend:
[1] = tested on: human CEM leukemic lymphocytes; assay: Growth inhibition of human CEM leukemic lymphocyte suspension cultures, 48 h continuous drug exposure (ID50); assay type: cell-based
Procedure: Culture and bioassay conditions were as described in Cancer Chemotherapy Pharmacology 20:277 (1987) "Comparative Effects of Adriamycin and DNA-nonbinding Analogues on DNA, RNA, and Protein Synthesis in Vitro", Israel et al., except that cell counts were determined by hemocytometer rather than by automated cell counting.

[2] = tested on: murine P388 leukemia; assay: In vivo antitumor activity vs. murine P388 (P388/S) leukemia; design: species or system murine (B6D2F1 males); settings: for Long-term survivors / Median increase in lifespan / Median survival / Net mean percent weight change, day 7 / Range of deaths (dying animals) / Range of death (dying animals): ip
Excerpt: Initial studies utilized a multiple dose schedule, with drug administered once daily on days 1, 2, 3 and 4. […] The marked activity of AD 312 in this system has been confirmed in multiple separate experiments.
Additional studies were done with AD 312 vs. murine P388/S under more demanding conditions of assay.
^a Summary results of 4 separate experiments. B6D2F1 males; 1 ×

[3] = tested on: calf thymus DNA; assay: Interstrand cross-link formation in isolated calf thymus DNA, ethidium bromide fluorescence assay; assay type: biochemical
Procedure: To further assess the alkylation potential of AD 312, the ability of this agent to form interstrand cross-links in isolated calf thymus DNA was examined using an ethidium bromide fluorescence assay. […] In one set of experiments, DNA was exposed briefly to AD 312 (30 minutes at 50° C.) before being reisolated by precipitation with ethanol. […] Such continuing reaction reflects the presence in the DNA of long-lived precursors of crosslinks similar to what has been found for the classical antitumor chloroethylnitrosoureas. […] It appears, therefore, that AD 312 induces DNA interstrand crosslinks via an initial adduct at O^6 -guanine.

[4] = Solubility in water or saline; assay type: physicochemical
Procedure: Accordingly, the compounds are formulated for administration by dissolving the compound in a pharmaceutically acceptable non-toxic carrier which contains a surfactant. The present inventors employ a formulation of 10% Cremaphor EL (a polyhydroxylated castor oil derivative) available from BASF Chemicals, 10% ethanol and 80% aqueous media (sterile water or saline solution). That quantity of the compound desired for establishing an effective dose is dissolved in a 1:1 mixture of Cremaphor EL and ethanol. Thereafter, sufficient aqueous medium is added with stirring to develop a final formulation containing 80% aqueous medium. This formulation is administered parenterally.

[5] = tested on: murine P388/adriamycin-resistant leukemia; assay: In vivo antitumor activity vs. murine P388/adriamycin-resistant leukemia (P388/ADR); settings: for Median increase in lifespan / Net mean percent weight change, day 7 / Long-term survivors / Range of death (dying animals): ip; for Long-term survivors: sacrifice day 60
Excerpt: Assays were run essentially according to the established protocols of the U.S. National Cancer Institute (Geran et al., 1972 "Protocols for Screening Chemical Agents and Natural Products Against Animal Tumors and Other Biological Systems" (3rd Ed.), Cancer Chemotherapy Rep. [3]33, 1-103.), with the test agent given at 3-5 incremental dose levels in each screening experiment and with median survival of treated groups referenced against data for untreated controls.
*B6D2F1 males; 1 × 10^6 tumor cell inoculum ip day 0; treatment

[6] = P388/S, 17.5 mg/kg/day, days 1-4
[7] = P388/S, single dose 40.5 mg/kg day 1
[8] = P388/S, single dose 40.5 mg/kg day 3
[9] = P388/ADR, single dose 40.5 mg/kg day 1

COc1cccc2c1C(=O)c1c(O)c3c(c(O)c1C2=O)C[C@@](O)(C(C)=O)C[C@@H]3O[C@H]1C[C@H](NC(=O)N(CCCl)N=O)[C@H](O)[C@H](C)O1 [AD 312, 2-chloroethylnitrosoureidodaunorubicin]
growth inhibitory activity ([1]; CEM in vitro): moderate to marked growth inhibitory activity; also recorded: somewhat less active | pIC50 ([1]; Homo sapiens, Lymphocyte, CEM, 48 hr continuous drug exposure (Table 2), read-out: ID50 (the source's name)): 7.05 | 60-day survival [2, 6]: 100% | drug toxicity [2, 6]: without evidence of drug toxicity | autopsy of surviving animals ([2]; P388/S, gross examination at termination): no evidence of tumor or other abnormalities was observed on gross examination | 60-day survival [2, 7]: 100% | antitumor effect [2, 7]: significant antitumor effect | dose toxicity [2, 7]: nontoxic | animals cured [2, 8]: 6 of 7 | day of the lone death [2, 8]: 45 days | Long-term survivors ([2]; 0.5 mg/kg qd 1-4): 0/7 | Median increase in lifespan ([2]; 0.5 mg/kg qd 1-4): +10% | Median survival ([2]; 0.5 mg/kg qd 1-4): 11 days | Net mean percent weight change, day 7 ([2]; 0.5 mg/kg qd 1-4): +13% | Range of deaths (dying animals) ([2]; 0.5 mg/kg qd 1-4): 10 to 11 days | Long-term survivors ([2]; 1.0 mg/kg qd 1-4): 0/7 | Median increase in lifespan ([2]; 1.0 mg/kg qd 1-4): +20% | Median survival ([2]; 1.0 mg/kg qd 1-4): 12 days | Net mean percent weight change, day 7 ([2]; 1.0 mg/kg qd 1-4): +6% | Range of deaths (dying animals) ([2]; 1.0 mg/kg qd 1-4): 11 to 18 days | Long-term survivors ([2]; 2.0 mg/kg qd 1-4 (Table 4)): 0/7 | Median increase in lifespan ([2]; 2.0 mg/kg qd 1-4 (Table 4)): +30% | Median survival ([2]; 2.0 mg/kg qd 1-4 (Table 4)): 13 days | Net mean percent weight change, day 7 ([2]; 2.0 mg/kg qd 1-4 (Table 4)): +7% | Range of deaths (dying animals) ([2]; 2.0 mg/kg qd 1-4 (Table 4)): 12 to 14 days | Long-term survivors ([2]; 2.7 mg/kg qd 1-4): 0/7 | Median increase in lifespan ([2]; 2.7 mg/kg qd 1-4): +60% | Median survival ([2]; 2.7 mg/kg qd 1-4): 16 days | Net mean percent weight change, day 7 ([2]; 2.7 mg/kg qd 1-4): +4% | Range of deaths (dying animals) ([2]; 2.7 mg/kg qd 1-4): 16 to 17 days | Long-term survivors ([2]; 4.0 mg/kg qd 1-4 (Table 4)): 0/7 | Median increase in lifespan ([2]; 4.0 mg/kg qd 1-4 (Table 4)): +75% | Median survival ([2]; 4.0 mg/kg qd 1-4 (Table 4)): 17.5 days | Net mean percent weight change, day 7 ([2]; 4.0 mg/kg qd 1-4 (Table 4)): +2% | Range of deaths (dying animals) ([2]; 4.0 mg/kg qd 1-4 (Table 4)): 15 to 20 days | Long-term survivors ([2]; 6.0 mg/kg qd 1-4): 0/7 | Median increase in lifespan ([2]; 6.0 mg/kg qd 1-4): +110% | Median survival ([2]; 6.0 mg/kg qd 1-4): 21 days | Net mean percent weight change, day 7 ([2]; 6.0 mg/kg qd 1-4): +4% | Range of deaths (dying animals) ([2]; 6.0 mg/kg qd 1-4): 19 to 24 days | Median increase in lifespan ([2]; 9.0 mg/kg qd 1-4): +250% | Median survival ([2]; 9.0 mg/kg qd 1-4): 35 days | Net mean percent weight change, day 7 ([2]; 9.0 mg/kg qd 1-4): -2% | Range of deaths (dying animals) ([2]; 9.0 mg/kg qd 1-4): 24 to 35 days | Long-term survivors ([2]; 9.0 mg/kg qd 1-4, sacrifice day 43): 3/7 | Median increase in lifespan ([2]; 10.0 mg/kg qd 1-4): > +500% | Net mean percent weight change, day 7 ([2]; 10.0 mg/kg qd 1-4): -1% | Range of deaths (dying animals) ([2]; 10.0 mg/kg qd 1-4): 38 days | Long-term survivors ([2]; 10.0 mg/kg qd 1-4, sacrifice day 60): 5/7 | Median increase in lifespan ([2]; 11.0 mg/kg qd 1-4): > +500% | Net mean percent weight change, day 7 ([2]; 11.0 mg/kg qd 1-4): +1% | Range of deaths (dying animals) ([2]; 11.0 mg/kg qd 1-4): 28 days | Long-term survivors ([2]; 11.0 mg/kg qd 1-4, sacrifice day 60): 5/6 | Long-term survivors ([2]; 12.0 mg/kg day 1 only): 0/7 | Median increase in lifespan ([2]; 12.0 mg/kg day 1 only): +100% | Median survival ([2]; 12.0 mg/kg day 1 only): 20 days | Net mean percent weight change, day 7 ([2]; 12.0 mg/kg day 1 only): +6% | Range of death (dying animals) ([2]; 12.0 mg/kg day 1 only): 16 to 22 days | Median increase in lifespan ([2]; 12.5 mg/kg qd 1-4): > +540% | Range of deaths (dying animals) ([2]; 12.5 mg/kg qd 1-4): 35 to 40 days | Long-term survivors ([2]; 12.5 mg/kg qd 1-4, sacrifice day 64): 4/7 | Median increase in lifespan ([2]; 15.0 mg/kg qd 1-4): > +540% | Net mean percent weight change, day 7 ([2]; 15.0 mg/kg qd 1-4): -1% | Range of deaths (dying animals) ([2]; 15.0 mg/kg qd 1-4): 32 to 39 days | Long-term survivors ([2]; 15.0 mg/kg qd 1-4, sacrifice day 64): 4/7 | Median increase in lifespan ([2]; 17.5 mg/kg qd 1-4): > +540% | Net mean percent weight change, day 7 ([2]; 17.5 mg/kg qd 1-4): -1% | Long-term survivors ([2]; 17.5 mg/kg qd 1-4, sacrifice day 64): 6/6 | Median increase in lifespan ([2]; 18.0 mg/kg day 1 only): +210% | Median survival ([2]; 18.0 mg/kg day 1 only): 31 days | Net mean percent weight change, day 7 ([2]; 18.0 mg/kg day 1 only): +7% | Range of death (dying animals) ([2]; 18.0 mg/kg day 1 only): 18 to 35 days | Long-term survivors ([2]; 18.0 mg/kg day 1 only, sacrifice day 60): 1/7 | Median increase in lifespan ([2]; 27.0 mg/kg day 1 only): +230% | Median survival ([2]; 27.0 mg/kg day 1 only): 33 days | Net mean percent weight change, day 7 ([2]; 27.0 mg/kg day 1 only): +9% | Range of death (dying animals) ([2]; 27.0 mg/kg day 1 only): 23 to 33 days | Long-term survivors ([2]; 27.0 mg/kg day 1 only, sacrifice day 60): 3/7 | Long-term survivors ([2]; 27.0 mg/kg day 3 only): 0/7 | Median increase in lifespan ([2]; 27.0 mg/kg day 3 only): +210% | Median survival ([2]; 27.0 mg/kg day 3 only): 31 days | Net mean percent weight change, day 7 ([2]; 27.0 mg/kg day 3 only): +17% | Range of death (dying animals) ([2]; 27.0 mg/kg day 3 only): 12 to 49 days | Median increase in lifespan ([2]; 40.5 mg/kg day 1 only): > +500% | Net mean percent weight change, day 7 ([2]; 40.5 mg/kg day 1 only): -3% | Long-term survivors ([2]; 40.5 mg/kg day 1 only, sacrifice day 60): 7/7 | Median increase in lifespan ([2]; 40.5 mg/kg day 3 only): > +500% | Net mean percent weight change, day 7 ([2]; 40.5 mg/kg day 3 only): -4% | Range of death (dying animals) ([2]; 40.5 mg/kg day 3 only): 45 days | Long-term survivors ([2]; 40.5 mg/kg day 3 only, sacrifice day 60): 6/7 | toxicity / myelosuppression at curative doses ([2]; tumor-bearing animals): No such effect appears to be present in tumor-bearing animals; also recorded: lack of toxicity at the curative dose levels | interstrand crosslink formation ([3]; 10 mM, 4 hours at 50° C.): appreciable interstrand crosslinks | continued crosslink formation after drug removal ([3]; 30 min exposure at 50° C., DNA reisolated, further incubation at 50° C.): crosslinks continued to form for several hours | effect of O^6-alkylguanine-DNA alkyltransferase on crosslink formation ([3]; enzyme added to AD 312-treated DNA): can block the protracted second step in crosslink formation | solubility ([4]; water or saline solution): essentially insoluble in water or saline solution | solubility ([4]; water, of the order of, read-out: solubility in water): < 25 µg/mL | curative rate ([5]; P388/ADR, once daily for 4 days, 15.0 to 20.0 mg/kg/day (3 dose levels)): 100% | dose toxicity [5, 9]: nontoxic | therapeutic effect [5, 9]: significant therapeutic effect | Median increase in lifespan ([5]; 15.0 mg/kg qd 1-4): > +500% | Net mean percent weight change, day 7 ([5]; 15.0 mg/kg qd 1-4): -4% | Long-term survivors ([5]; 15.0 mg/kg qd 1-4): 7/7 | Median increase in lifespan ([5]; 17.5 mg/kg qd 1-4): > +500% | Net mean percent weight change, day 7 ([5]; 17.5 mg/kg qd 1-4): -9% | Long-term survivors ([5]; 17.5 mg/kg qd 1-4): 7/7 | Median increase in lifespan ([5]; 20.0 mg/kg qd 1-4): > +500% | Net mean percent weight change, day 7 ([5]; 20.0 mg/kg qd 1-4): -9% | Long-term survivors ([5]; 20.0 mg/kg qd 1-4): 7/7 | Median increase in lifespan ([5]; 27.0 mg/kg d1 only): > +500% | Net mean percent weight change, day 7 ([5]; 27.0 mg/kg d1 only): +5% | Range of death (dying animals) ([5]; 27.0 mg/kg d1 only): 19,26 days | Long-term survivors ([5]; 27.0 mg/kg d1 only): 5/7 | Median increase in lifespan ([5]; 40.5 mg/kg d1 only): > +500% | Net mean percent weight change, day 7 ([5]; 40.5 mg/kg d1 only): -0.5% | Range of death (dying animals) ([5]; 40.5 mg/kg d1 only): 13,27 days | Long-term survivors ([5]; 40.5 mg/kg d1 only): 5/7
